This passage reports IC50 results from patent US11702422B2, “Imidazopyridazines as modulators of IL-17” (Janssen Pharmaceutica NV, priority 2020, dated 2023).

For test [1], the target named is IL-17A(FLAG-Tagged): IL-17RA(His-Tagged) (Homo sapiens, UniProt Q16552, K93Q). As to the kind of experiment: IL-17A(FLAG-Tagged): IL-17RA(His-Tagged) Binding Disruption Eu-HTRF Assay. Conditions: IL-17A/IL-17RA binding disruption, simple average if tested more than once. In short, it runs like this: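 IC50 comes from a one-site competition fit of the HTRF 665/620 nm ratio. Compound dilutions (2-fold, 22 points) were held 1 h rt with FLAG-tagged IL-17A dimer, then His-tagged IL-17RA plus Eu-cryptate anti-FLAG and D2 anti-His antibodies were added for 2 h rt.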
UniProt Q16552, sequence (Q16552 with tags, fused parts or gaps K93Q): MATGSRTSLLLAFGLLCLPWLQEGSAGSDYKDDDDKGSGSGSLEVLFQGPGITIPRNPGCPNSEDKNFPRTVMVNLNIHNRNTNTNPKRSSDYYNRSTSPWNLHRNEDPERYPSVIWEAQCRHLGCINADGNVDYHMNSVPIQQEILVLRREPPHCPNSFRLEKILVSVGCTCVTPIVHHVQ

For test [2], the system named is IL-17A-induced G-CSF production in human normal keratinocyte (NHK). The test can be described thus: NHK Assay: IL-17A-induced G-CSF production in human normal keratinocytes. Conditions: adult normal human keratinocytes, IL-17A 5 ng/mL, 24 h, simple average if tested more than once. The class given is cell-based. In short, it runs like this:
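IL-17A (5 ng/mL final) was pre-incubated 1 h at rt with titrated compound and then added to adult normal human keratinocytes (5% FBS, 0.2% DMSO) for 24 h at 37° C. Supernatant G-CSF was measured by HTRF against a standard curve to derive IC50. Viability was checked by CellTiter-Glo.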

Take `CCC(CC(=O)N[C@@H](c1cnn2cc([C@@H](NC(=O)c3nonc3C)C3CCC(F)(F)CC3)nc2c1)C1CC1)CC(F)(F)F` (single isomer, unassigned) [Example 343, N—((S)-(7-((R)-Cyclopropyl((S*)-3-ethyl-5,5,5-trifluoropentanamido)methyl)imidazo[1,2-b]pyridazin-2-yl)(4,4-difluorocyclohexyl)methyl)-4-methyl-1,2,5-oxadiazole-3-carboxamide]: the figures for the IC50 in test [1] and in test [2] were 170 nM and 430 nM, respectively.
For `O=C(CCC(F)(F)F)NC(c1cnn2cc([C@@H](NC(=O)c3cnn(CCC(F)(F)F)c3)C3CCC(F)(F)CC3)nc2c1)C1CC1` (single isomer, unassigned) [Example 7, N—((S)-(7-((S*)-Cyclopropyl(4,4,4-trifluorobutanamido)methyl)imidazo[1,2-b]pyridazin-2-yl)(4,4-difluorocyclohexyl)methyl)-1-(3,3,3-trifluoropropyl)-1H-pyrazole-4-carboxamide], in that order: 4900 nM and greater than 20000 nM.
Consider `O=C(CC1CC(F)(F)C1)N[C@@H](c1cnn2cc([C@@H](NC(=O)c3nonc3CN3CC(F)C3)C3CCC(F)(F)CC3)nc2c1)C1CC1` [Example 407, N—((S)-(7-((R)-Cyclopropyl(2-(3,3-difluorocyclobutyl)acetamido)methyl)imidazo[1,2-b]pyridazin-2-yl)(4,4-difluorocyclohexyl)methyl)-4-((3-fluoroazetidin-1-yl)methyl)-1,2,5-oxadiazole-3-carboxamide], for which the IC50 is 240 nM in test [1] and 97 nM in test [2] (Homo sapiens, Keratinocyte).
Consider `Cc1nonc1C(=O)N[C@H](c1cn2ncc(C(NC(=O)CC3CC(F)(F)C3)C(C)(C)O)cc2n1)C1CCC(F)(F)CC1` (single isomer, unassigned) [Example 445, N—((S)-(7-((R*)-1-(2-(3,3-Difluorocyclobutyl)acetamido)-2-hydroxy-2-methylpropyl)imidazo[1,2-b]pyridazin-2-yl)(4,4-difluorocyclohexyl)methyl)-4-methyl-1,2,5-oxadiazole-3-carboxamide], for which the half-inhibitory concentration (IC50) is 5800 nM in test [1] and greater than 20000 nM in test [2].
Turning to `Cc1nonc1C(=O)N[C@H](c1cn2ncc([C@H](NC(=O)COCC(F)F)C3CC3)cc2n1)C1CCC(F)(F)CC1` [Example 304, N—((S)-(7-((R)-Cyclopropyl(2-(2,2-difluoroethoxy)acetamido)methyl)imidazo[1,2-b]pyridazin-2-yl)(4,4-difluorocyclohexyl)methyl)-4-methyl-1,2,5-oxadiazole-3-carboxamide], the IC50 was found to be 620 nM in test [1] and 910 nM in test [2] (Homo sapiens, Keratinocyte).
As for `Cc1nonc1C(=O)N[C@H](c1cn2ncc(C(NC(=O)CC3(C(F)(F)F)CC3)C3(C#N)CC3)cc2n1)C1CCC(F)(F)CC1` (single isomer, unassigned) [Example 432, N—((S)-(7-((R*)-(1-Cyanocyclopropyl)(2-(1-(trifluoromethyl)cyclopropyl)acetamido)methyl)imidazo[1,2-b]pyridazin-2-yl)(4,4-difluorocyclohexyl)methyl)-4-methyl-1,2,5-oxadiazole-3-carboxamide], the IC50 in test [1] is 3700 nM; in test [2], greater than 20000 nM.
With `O=C(CCC(F)(F)F)N[C@@H](c1cnn2cc([C@@H](NC(=O)C3CC34CC4)C3CCC(F)(F)CC3)nc2c1)C1CC1` (stereo partly drawn) [Example 44, N—((S)-(7-((R)-Cyclopropyl(4,4,4-trifluorobutanamido)methyl)imidazo[1,2-b]pyridazin-2-yl)(4,4-difluorocyclohexyl)methyl)spiro[2.2]pentane-1-carboxamide], the IC50 in test [1] was 740 nM; in test [2] (Homo sapiens, Keratinocyte) it was 1400 nM.
On the same counts, the results for `O=C(CCC(F)(F)F)N[C@@H](c1cnn2cc([C@@H](NC(=O)c3cncc(C(F)(F)F)n3)C3CCC(F)(F)CC3)nc2c1)C1CC1` [Example 210, N—((S)-(7-((R)-Cyclopropyl(4,4,4-trifluorobutanamido)methyl)imidazo[1,2-b]pyridazin-2-yl)(4,4-difluorocyclohexyl)methyl)-6-(trifluoromethyl)pyrazine-2-carboxamide] are 620 nM and greater than 20000 nM.
In the case of `CC(F)(F)c1cccc(C(=O)N[C@H](c2cn3ncc([C@H](NC(=O)CCC(F)(F)F)C4CC4)cc3n2)C2CCC(F)(F)CC2)n1` [Example 230, N—((S)-(7-((R)-Cyclopropyl(4,4,4-trifluorobutanamido)methyl)imidazo[1,2-b]pyridazin-2-yl)(4,4-difluorocyclohexyl)methyl)-6-(1,1-difluoroethyl)picolinamide], the IC50 in test [1] was 2000 nM; in test [2] (Homo sapiens, Keratinocyte) it was greater than 20000 nM.
For `CC(C)c1cncc(C(=O)N[C@H](c2cn3ncc([C@H](NC(=O)CCC(F)(F)F)C4CC4)cc3n2)C2CCC(F)(F)CC2)c1` [Example 415, N—((S)-(7-((R)-Cyclopropyl(4,4,4-trifluorobutanamido)methyl)imidazo[1,2-b]pyridazin-2-yl)(4,4-difluorocyclohexyl)methyl)-5-isopropylnicotinamide], in that order: 73 nM and 500 nM.
As to `O=C(CCC(F)(F)F)N[C@@H](c1cnn2cc([C@@H](NC(=O)[C@H]3C[C@@H]3C(F)(F)F)C3CCC(F)(F)CC3)nc2c1)C1CC1` (relative stereo) [Example 149, (Trans-1S*,2S*)—N—((S)-(7-((R)-Cyclopropyl(4,4,4-trifluorobutanamido)methyl)imidazo[1,2-b]pyridazin-2-yl)(4,4-difluorocyclohexyl)methyl)-2-(trifluoromethyl)cyclopropane-1-carboxamide], the IC50 in test [1] was 240 nM; in test [2] (Homo sapiens, Keratinocyte) it was 510 nM.
For `O=C(CCC(F)(F)F)N[C@@H](c1cnn2cc([C@@H](NC(=O)c3cc(OCC(F)F)ccn3)C3CCC(F)(F)CC3)nc2c1)C1CC1` [Example 197, N—((S)-(7-((R)-Cyclopropyl(4,4,4-trifluorobutanamido)methyl)imidazo[1,2-b]pyridazin-2-yl)(4,4-difluorocyclohexyl)methyl)-4-(2,2-difluoroethoxy)picolinamide], in that order: 300 nM and 1700 nM.
As to `CCC(NC(=O)CC1CC(F)(F)C1)c1cnn2cc([C@@H](NC(=O)c3ccnn3C(C)C)C3CCC(F)(F)CC3)nc2c1` (single isomer, unassigned) [Example 520, N—((S)-(7-((S*)-1-(2-(3,3-Difluorocyclobutyl)acetamido)propyl)imidazo[1,2-b]pyridazin-2-yl)(4,4-difluorocyclohexyl)methyl)-1-isopropyl-1H-pyrazole-5-carboxamide], the half-inhibitory concentration (IC50) came to 660 nM in test [1] and 5000 nM in test [2] (Homo sapiens, Keratinocyte).
On the same counts, the results for `Cc1cncc(C(=O)N[C@H](c2cn3ncc([C@H](NC(=O)CCC(F)(F)F)C4CC4)cc3n2)C2CCC(F)(F)CC2)n1` [Example 220, N—((S)-(7-((R)-Cyclopropyl(4,4,4-trifluorobutanamido)methyl)imidazo[1,2-b]pyridazin-2-yl)(4,4-difluorocyclohexyl)methyl)-6-methylpyrazine-2-carboxamide] are 15000 nM and greater than 20000 nM.
On the same counts, the results for `O=C(CCC(F)(F)F)N[C@@H](c1cnn2cc([C@@H](NC(=O)c3ncnn3CCC(F)F)C3CCC(F)(F)CC3)nc2c1)C1CC1` [Example 46, N—((S)-(7-((R)-Cyclopropyl(4,4,4-trifluorobutanamido)methyl)imidazo[1,2-b]pyridazin-2-yl)(4,4-difluorocyclohexyl)methyl)-1-(3,3-difluoropropyl)-1H-1,2,4-triazole-5-carboxamide] are 130 nM and 640 nM.
For `O=C(N[C@H](c1cn2ncc([C@H](NC(=O)C(F)(F)CC3CC3)C3CC3)cc2n1)C1CCC(F)(F)CC1)c1nonc1C1CC1` [Example 411, 4-Cyclopropyl-N—((S)-(7-((R)-cyclopropyl(3-cyclopropyl-2,2-difluoropropanamido)methyl)imidazo[1,2-b]pyridazin-2-yl)(4,4-difluorocyclohexyl)methyl)-1,2,5-oxadiazole-3-carboxamide], in that order: 78 nM and 49 nM.
Regarding `O=C(CCC(F)(F)F)N[C@@H](c1cnn2cc([C@@H](NC(=O)c3cc(C4CC4)ccn3)C3CCC(F)(F)CC3)nc2c1)C1CC1` [Example 460, 4-Cyclopropyl-N—((S)-(7-((R)-cyclopropyl(4,4,4-trifluorobutanamido)methyl)imidazo[1,2-b]pyridazin-2-yl)(4,4-difluorocyclohexyl)methyl)picolinamide], the IC50 in test [1] was determined as 110 nM; in test [2] (Homo sapiens, Keratinocyte), 1100 nM.
On the same counts, the results for `O=C(CCC(F)(F)F)N[C@@H](c1cnn2cc([C@@H](NC(=O)c3ncnn3CCOC(F)(F)F)C3CCC(F)(F)CC3)nc2c1)C1CC1` [Example 70, N—((S)-(7-((R)-Cyclopropyl(4,4,4-trifluorobutanamido)methyl)imidazo[1,2-b]pyridazin-2-yl)(4,4-difluorocyclohexyl)methyl)-1-(2-(trifluoromethoxy)ethyl)-1H-1,2,4-triazole-5-carboxamide] are 49 nM and 110 nM.
With `N#CC1(C(NC(=O)CC2CC(F)(F)C2)c2cnn3cc([C@@H](NC(=O)c4nonc4OCC(F)F)C4CCC(F)(F)CC4)nc3c2)CC1` (single isomer, unassigned) [Example 430, N—((S)-(7-((R*)-(1-Cyanocyclopropyl)(2-(3,3-difluorocyclobutyl)acetamido)methyl)imidazo[1,2-b]pyridazin-2-yl)(4,4-difluorocyclohexyl)methyl)-4-(2,2-difluoroethoxy)-1,2,5-oxadiazole-3-carboxamide], the results for the 50% inhibitory concentration (IC50) in test [1] and in test [2] were 1600 nM and 12000 nM, respectively.

For orientation: IC50 means the midpoint of a concentration-inhibition curve.
